The assay deals with human PDHK2 (hPDHK2) (Homo sapiens (Human), UniProt Q15119). Nature of the assay: Inhibitory action of PDHK activity in vitro (kinase reaction, residual PDH activity measured). In kind it is biochemical.
Setting [1] is: PDHK inhibitory activity, class symbol of IC50.
The mark [2] stands for this setting: read-out: PDHK inhibitory activity IC50.

IC50 data for 23 compounds are collected here from US8871934B2, “Fluorene compound and pharmaceutical use thereof” (Japan Tobacco Inc., priority 2008, dated 2014).

Broadly, the IC50 is the concentration that gives 50% inhibition.

Read-outs that look alike come from different tables or passages of the source. Where only a bound is given, the exact number is not on record here.

Regarding `COC(=O)COc1cc(Br)c2c(c1)C(O)(C(F)(F)F)c1ccccc1-2` (single isomer, unassigned) [compound 452], the IC50 under setting [1] was > 1 µM and the IC50 under setting [2] was 2.72 µM.

In the case of `CN(C)C(=O)COc1cc(-c2cnn(C)c2)c2c(c1)C(O)(C(F)(F)F)c1ccccc1-2` (stereo not shown) [compound 457], the IC50 under setting [1] was < 0.1 µM and the IC50 under setting [2] amounted to 0.03 µM.

For the compound `CN(CCO)C(=O)c1cc(-c2cncnc2)c2c(c1)C(O)(C(F)(F)F)c1ccccc1-2` (stereo not shown) [compound 372], the IC50 runs as follows: under setting [1], 0.1 to 1 µM; under setting [2], 0.564 µM.

As to `CC(=O)Nc1cccc2c1-c1ccccc1C2(O)C(F)(F)F` (stereo not shown) [compound 19], the IC50 under setting [1] is > 1 µM and the IC50 under setting [2] was > 100 µM.

Take `Cn1nnnc1-c1cccc2c1-c1ccccc1C2(O)C(F)(F)F` (stereo not shown) [compound 251]: the IC50 is > 1 µM under setting [1] and > 10 µM under setting [2].

Consider `O=C(NCCCCO)c1ccc2c(c1)C(O)(C(F)(F)F)c1ccccc1-2` (stereo not shown) [compound 312], for which the IC50 by setting is: under setting [1], > 1 µM; under setting [2], 1.82 µM.

Consider `Cc1cc(-c2cnn(CC(=O)O)c2)c2c(c1)[C@@](O)(C(F)(F)F)c1ccccc1-2` (stereo in doubt) [compound 550], for which the IC50 reads like this: (PDHK inhibitory activity IC50 (μmol/L)) 0.069 µM; under setting [1], < 0.1 µM.

Take `O=C(NCCO)c1ccc2c(c1)C(O)(C(F)(F)F)c1ccccc1-2` (stereo not shown) [compound 310]: the IC50 runs as follows: under setting [1], > 1 µM; under setting [2], > 10 µM.

For `COc1ccccc1-c1ccc2c(c1)C(O)(C(F)(F)F)c1ccccc1-2` (stereo not shown) [compound 170], the IC50 under setting [1] was > 1 µM and the IC50 under setting [2] was determined as 6.74 µM.

In the case of `O=C(c1ccc2c(c1)C(O)(C(F)(F)F)c1ccccc1-2)N1CCOCC1` (stereo not shown) [compound 127], the IC50 was > 1 µM under setting [1] and > 10 µM under setting [2].

With `NC(=O)C1CCN(c2ccc3c(c2)C(O)(C(F)(F)F)c2ccccc2-3)CC1` (stereo not shown) [compound 230], the IC50 reads like this: under setting [1], > 1 µM; under setting [2], 3.71 µM.

As to `CN(C(=O)c1ccc2c(c1)C(O)(C(F)(F)F)c1ccccc1-2)c1ccccc1` (stereo not shown) [compound 56], the concentration for half-maximal inhibition (IC50) under setting [1] was > 1 µM and the IC50 under setting [2] is > 100 µM.

As to `CN(CCO)C(=O)COc1ccc2c(c1)C(O)(C(F)(F)F)c1ccccc1-2` (stereo not shown) [compound 366], the IC50 reads like this: under setting [1], > 1 µM; under setting [2], 2.17 µM.

For the compound `OC1(C(F)(F)F)c2ccccc2-c2c(Cl)cc(-c3ccccc3)cc21` (stereo not shown) [compound 159], the IC50 by setting is: under setting [1], 0.1 to 1 µM; under setting [2], 0.318 µM.

Take `CC(=O)NCCOc1cc(-c2cnn(C)c2)c2c(c1)C(O)(C(F)(F)F)c1ccccc1-2` (stereo not shown) [compound 435]: the IC50 was < 0.1 µM under setting [1] and 0.039 µM under setting [2].

With `O=C(O)CCCCOc1cc(Cl)c2c(c1)C(O)(C(F)(F)F)c1ccccc1-2` (stereo not shown) [compound 384], the IC50 reads like this: under setting [1], 0.1 to 1 µM; under setting [2], 0.219 µM.

`OC1(C(F)(F)F)c2ccccc2-c2ccc(Oc3ccccc3)cc21` (stereo not shown) [compound 187]: the concentration for half-maximal inhibition (IC50) reads like this: under setting [1], > 1 µM; under setting [2], 2.48 µM.

Turning to `CC(C)Cn1cc(-c2cccc3c2-c2ccccc2C3(O)C(F)(F)F)cn1` (stereo not shown) [compound 386], the IC50 under setting [1] is < 0.1 µM and the IC50 under setting [2] came out at 0.089 µM.

Consider `Cn1cc(-c2cc(C(=O)N3CC3)cc3c2-c2ccccc2C3(O)C(F)(F)F)cn1` (stereo not shown) [compound 414], for which the IC50 is < 0.1 µM under setting [1] and 0.032 µM under setting [2].

As for `OCCCCOc1cc(-c2cnn(CCO)c2)c2c(c1)C(O)(C(F)(F)F)c1ccccc1-2` (single isomer, unassigned) [compound 624], the IC50 is < 0.1 µM (PDHK inhibitory activity (class symbol)) and 0.014 µM under setting [2].

For `OCCCCCOc1cc(Cl)c2c(c1)C(O)(C(F)(F)F)c1ccccc1-2` (stereo not shown) [compound 387], the IC50 is < 0.1 µM under setting [1] and 0.063 µM under setting [2].

As for `O=C(O)COc1ccc2c(c1)C(O)(C(F)(F)F)c1ccccc1-2` (stereo not shown) [compound 287], the IC50 is > 1 µM under setting [1] and > 10 µM under setting [2].

With `Cc1ccc(-c2cccc3c2-c2ccccc2C3(O)C(F)(F)F)cn1` (stereo not shown) [compound 273], the IC50 was 0.1 to 1 µM under setting [1] and 0.396 µM under setting [2].
